Assay results: patent US9113629B2, “4-amino-6-(4-substituted-phenyl)-picolinates and 6-amino-2-(4-substituted-phenyl)-pyrimidine-4-carboxylates and their use as herbicides” (DOW AGROSCIENCES LLC, priority 2013, dated 2015)
Like-named read-outs stand apart in the source and are kept apart here.

Tests used:
[1] = tested on: Key Grass and Sedge Weeds as well as Grass Crops; assay: Post-emergent Test II herbicidal activity (Table 6); format: in vivo; details: post-emergence, 336 h; for pest or weed control at 70 g/ha: 70 g ai/ha; for pest or weed control at 140 g/ha: 140 g ai/ha
In short: (§1)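 Greenhouse post-emergent assay: seedlings (first/second true leaf) in Metro-Mix 360 were sprayed at 187 L/ha at a top rate plus twofold dilutions down to 1/16×; solvent-blank controls were included. Percent visual injury was read at 14 d.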

[2] = tested on: Key Broadleaf Weed and Crop Species; assay: Post-emergent Test II herbicidal activity (Table 5); format: in vivo; details: post-emergence, 336 h, 14 days after application; for pest or weed control at 70 g/ha: application rate 70 g ai/ha; for pest or weed control at 140 g/ha: application rate 140 g ai/ha
In short: as §1

[3] = CYPES: yellow nutsedge (Cyperus esculentus), read-out: Visual Growth Reduction (%) 14 Days After Application, CYPES
[4] = DIGSA: crabgrass (Digitaria sanguinalis), read-out: Visual Growth Reduction (%) 14 Days After Application, DIGSA
[5] = ECHCG: barnyardgrass (Echinochloa crus-galli), read-out: Visual Growth Reduction (%) 14 Days After Application, ECHCG
[6] = ORYSA: rice (Oryza sativa), crop, read-out: Visual Growth Reduction (%) 14 Days After Application, ORYSA
[7] = SORVU: grain sorghum (Sorghum vulgare), read-out: Visual Growth Reduction (%) 14 Days After Application, SORVU
[8] = TRZSS (wheat, Triticum aestivum), crop, read-out: Visual Growth Reduction (%) 14 Days After Application, TRZSS
[9] = ZEAMX: maize, corn (Zea mays), crop, read-out: Visual Growth Reduction (%) 14 Days After Application, ZEAMX
[10] = ABUTH: velvetleaf (Abutilon theophrasti), read-out: Visual Growth Reduction (%) 14 Days After Application, ABUTH
[11] = AMARE: redroot pigweed (Amaranthus retroflexus), read-out: Visual Growth Reduction (%) 14 Days After Application, AMARE
[12] = BRSNN: oilseed-rape, canola (Brassica napus), read-out: Visual Growth Reduction (%) 14 Days After Application, BRSNN
[13] = CHEAL: lambsquarters (Chenopodium album), read-out: Visual Growth Reduction (%) 14 Days After Application, CHEAL
[14] = EPHHL: wild poinsettia (Euphorbia heterophylla), read-out: Visual Growth Reduction (%) 14 Days After Application, EPHHL
[15] = HELAN: sunflower (Helianthus annuus), read-out: Visual Growth Reduction (%) 14 Days After Application, HELAN
[16] = VIOTR: wild pansy (Viola tricolor), read-out: Visual Growth Reduction (%) 14 Days After Application, VIOTR

Question: With COC(=O)c1nc(-c2ccc(Br)c(F)c2F)nc(N)c1OC [Compound 122, methyl 6-amino-2-(4-bromo-2,3-difluorophenyl)-5-methoxypyrimidine-4-carboxylate] as the compound, how does the pest or weed control at 70 g/ha [1, 3] read?
Answer: Its pest or weed control at 70 g/ha is 95 to 100%.

Question: And the pest or weed control at 140 g/ha [1, 3]?
Answer: Its pest or weed control at 140 g/ha is 95 to 100%.

Question: And the pest or weed control at 70 g/ha [1, 4]?
Answer: Its pest or weed control at 70 g/ha is 45 to 59%.

Question: And the pest or weed control at 140 g/ha [1, 4]?
Answer: Its pest or weed control at 140 g/ha is 45 to 59%.

Question: And the pest or weed control at 70 g/ha [1, 5]?
Answer: The pest or weed control at 70 g/ha was 85 to 94%.

Question: And the pest or weed control at 140 g/ha [1, 5]?
Answer: Its pest or weed control at 140 g/ha is 95 to 100%.

Question: And the pest or weed control at 70 g/ha [1, 6]?
Answer: Its pest or weed control at 70 g/ha is 0 to 29%.

Question: And the pest or weed control at 140 g/ha [1, 6]?
Answer: The pest or weed control at 140 g/ha was 0 to 29%.

Question: What about the pest or weed control at 140 g/ha ([1]; SETFA: giant foxtail (Setaria faberi), read-out: Visual Growth Reduction (%) 14 Days After Application, SETFA) of the same compound?
Answer: Its pest or weed control at 140 g/ha is 95 to 100%.

Question: What about the pest or weed control at 70 g/ha [1, 7] of the same compound?
Answer: The pest or weed control at 70 g/ha was 95 to 100%.

Question: What about the pest or weed control at 140 g/ha [1, 7] of the same compound?
Answer: The pest or weed control at 140 g/ha was 85 to 94%.

Question: What about the pest or weed control at 70 g/ha [1, 8] of the same compound?
Answer: Its pest or weed control at 70 g/ha is 45 to 59%.

Question: What about the pest or weed control at 140 g/ha [1, 8] of the same compound?
Answer: Its pest or weed control at 140 g/ha is 45 to 59%.

Question: What about the pest or weed control at 70 g/ha [1, 9] of the same compound?
Answer: The pest or weed control at 70 g/ha was 95 to 100%.

Question: What about the pest or weed control at 140 g/ha [1, 9] of the same compound?
Answer: The pest or weed control at 140 g/ha was 95 to 100%.

Question: And the pest or weed control at 70 g/ha [2, 10]?
Answer: The pest or weed control at 70 g/ha was 95 to 100%.

Question: And the pest or weed control at 140 g/ha [2, 10]?
Answer: The pest or weed control at 140 g/ha was 95 to 100%.

Question: What about the pest or weed control at 70 g/ha [2, 11] of the same compound?
Answer: The pest or weed control at 70 g/ha was 95 to 100%.

Question: And the pest or weed control at 140 g/ha [2, 11]?
Answer: The pest or weed control at 140 g/ha was 95 to 100%.

Question: And the pest or weed control at 70 g/ha [2, 12]?
Answer: Its pest or weed control at 70 g/ha is 95 to 100%.

Question: And the pest or weed control at 140 g/ha [2, 12]?
Answer: Its pest or weed control at 140 g/ha is 95 to 100%.

Question: And the pest or weed control at 70 g/ha [2, 13]?
Answer: The pest or weed control at 70 g/ha was 95 to 100%.

Question: What about the pest or weed control at 140 g/ha [2, 13] of the same compound?
Answer: The pest or weed control at 140 g/ha was 95 to 100%.

Question: And the pest or weed control at 70 g/ha [2, 14]?
Answer: The pest or weed control at 70 g/ha was 95 to 100%.

Question: And the pest or weed control at 140 g/ha [2, 14]?
Answer: Its pest or weed control at 140 g/ha is 95 to 100%.

Question: What about the pest or weed control at 70 g/ha [2, 15] of the same compound?
Answer: The pest or weed control at 70 g/ha was 85 to 94%.

Question: What about the pest or weed control at 140 g/ha [2, 15] of the same compound?
Answer: The pest or weed control at 140 g/ha was 95 to 100%.

Question: And the pest or weed control at 70 g/ha [2, 16]?
Answer: Its pest or weed control at 70 g/ha is 95 to 100%.

Question: And the pest or weed control at 140 g/ha [2, 16]?
Answer: The pest or weed control at 140 g/ha was 85 to 94%.

Question: And the melting point?
Answer: Its melting point is 171 to 172 °C.
